Reference: patent publication US20130085064A1, “PESTICIDAL MIXTURES CONTAINING ISOXAZOLINE DERIVATIVES AND INSECTICIDE OR NEMATOICIDAL BIOLOGICAL AGENT” (priority 2010, published 2013)
“And” between values parts separate entries of the source, which are not always exact repeats. Identical values can stand only once. Like-named read-outs stand apart in the source and are kept apart here.

Assays:
[1] = tested on: Heliothis virescens (tobacco budworm); test: Heliothis virescens eggs in 24-well microtiter plate on artificial diet, larval mortality; type: in vivo; settings: for pest or weed control at 0.375 ppm / pest or weed control at 0.75 ppm / pest or weed control at 1.5 ppm / pest or weed control at 3 ppm / pest or weed control at 6 ppm / pest or weed control at 12 ppm / pest or weed control at 6.25 ppm / pest or weed control at 12.5 ppm / pest or weed control at 25 ppm / pest or weed control at 50 ppm / pest or weed control at 100 ppm / pest or weed control at 200 ppm: Heliothis virescens, 96 h, read-out: AVERAGE DEAD IN %
Source text: (§1) The action to be expected E for a given active ingredient combination obeys the so-called COLBY formula and can be calculated as follows (COLBY, S.R. “Calculating synergistic and antagonistic responses of herbicide combination”. Weeds, Vol. 15, pages 20-22; 1967):
(§2) ppm=milligrams of active ingredient (=a.i.) per liter of spray mixture X=% action by active ingredient A) using p ppm of active ingredient Y=% action by active ingredient B) using q ppm of active ingredient.
(§3) According to COLBY, the expected (additive) action of active ingredients A)+B) using p+q ppm of active ingredient is
(§4) If the action actually observed (O) is greater than the expected action (E), then the action of the combination is super-additive, i.e. there is a synergistic effect. In mathematical terms the synergism factor SF corresponds to O/E. In the agricultural practice an SF of ≧1.2 indicates significant improvement over the purely complementary addition of activities (expected activity), while an SF of ≦0.9 in the practical application routine signals a loss of activity compared to the expected activity.
Heliothis Virescens (Tobacco Budworm)
Eggs (0-24 h old) are placed in 24-well microtiter plate on artificial diet and treated with test solutions (DMSO) by pipetting. After an incubation period of 4 days, samples are checked for larval mortality.

[2] = tested on: Tetranychus urticae (two-spotted spider mite); test: Tetranychus urticae bean leaf discs in 24-well microtiter plates, mixed population mortality; type: in vivo; settings: 8 days
Source text: as §1, §2, §3, §4
Tetranychus Urticae (Two-Spotted Spider Mite)
Bean leaf discs on agar in 24-well microtiter plates are sprayed with test solutions (DMSO). After drying, the leaf discs are infested with mite populations of mixed ages. 8 days later, discs are checked for mixed population mortality.

[3] = single compound, 12.5 ppm AI, larval mortality, 4 days
[4] = single compound, 25 ppm AI, larval mortality, 4 days
[5] = single compound, 50 ppm AI, larval mortality, 4 days
[6] = single compound, 100 ppm AI, larval mortality, 4 days
[7] = single compound, 200 ppm AI, larval mortality, 4 days

In the case of Cc1cc(C2=NOC(c3cc(Cl)cc(Cl)c3)(C(F)(F)F)C2)ccc1C(=O)NC1CSC1 (racemic) [SYN 545706], the “AVERAGE DEAD IN %” value ([1]; single compound, 0.1 ppm AI, larval mortality, 4 days) is reported as 0%, the “AVERAGE DEAD IN %” value ([1]; single compound, 0.2 ppm AI, larval mortality, 4 days) is reported as 35% and 25% and the “AVERAGE DEAD IN %” value ([1]; single compound, 0.4 ppm AI, larval mortality, 4 days) is reported as 90% and 78%. The “AVERAGE DEAD IN %” value ([1]; single compound, 0.8 ppm AI, larval mortality, 4 days) was 95% and 88%, the “AVERAGE DEAD IN %” value ([1]; single compound, 1.6 ppm AI, larval mortality, 4 days) was 90% and 91% and the “AVERAGE DEAD IN %” value ([1]; single compound, 3.2 ppm AI, larval mortality, 4 days) was 98% and 96%.
In the case of CN/C(=N\[N+](=O)[O-])NCc1cnc(Cl)s1 [Clothianidin], the pest or weed control at 0.375 ppm ([1]; Clothianidin alone 0.375 ppm AI) is reported as 0%, the pest or weed control at 0.75 ppm ([1]; Clothianidin alone 0.75 ppm AI) is reported as 0% and the pest or weed control at 1.5 ppm ([1]; Clothianidin alone 1.5 ppm AI) is reported as 0%. It also gave a pest or weed control at 3 ppm ([1]; Clothianidin alone 3 ppm AI) of 3%, a pest or weed control at 6 ppm ([1]; Clothianidin alone 6 ppm AI) of 38% and a pest or weed control at 12 ppm ([1]; Clothianidin alone 12 ppm AI) of 48%. For the same compound, the pest or weed control at 0.375 ppm ([1]; single compound at 0.375 ppm AI) was 0%, the pest or weed control at 0.75 ppm ([1]; single compound at 0.75 ppm AI) was 0% and the pest or weed control at 1.5 ppm ([1]; single compound at 1.5 ppm AI) was 0%. The pest or weed control at 3 ppm ([1]; single compound at 3 ppm AI) was 3%, the pest or weed control at 6 ppm ([1]; single compound at 6 ppm AI) was 38% and the pest or weed control at 12 ppm ([1]; single compound at 12 ppm AI) was 48%. For the same compound, the pest or weed control at 0.375 ppm ([1]; single compound, 0.375 ppm AI, larval mortality, 4 days) was 0%, the pest or weed control at 0.75 ppm ([1]; single compound, 0.75 ppm AI, larval mortality, 4 days) was 0% and the pest or weed control at 1.5 ppm ([1]; single compound, 1.5 ppm AI, larval mortality, 4 days) was 0%. It also gave a pest or weed control at 3 ppm ([1]; single compound, 3 ppm AI, larval mortality, 4 days) of 0%, a pest or weed control at 6 ppm ([1]; single compound, 6 ppm AI, larval mortality, 4 days) of 45% and a pest or weed control at 12 ppm ([1]; single compound, 12 ppm AI, larval mortality, 4 days) of 80%.
In the case of N#CCNC(=O)c1cnccc1C(F)(F)F [Flonicamid], the “AVERAGE DEAD IN %” value ([1]; Flonicamid alone 12.5 ppm AI) is reported as 0%, the “AVERAGE DEAD IN %” value ([1]; Flonicamid alone 25 ppm AI) is reported as 0% and the “AVERAGE DEAD IN %” value ([1]; Flonicamid alone 50 ppm AI) is reported as 0%. For the same compound, the “AVERAGE DEAD IN %” value ([1]; Flonicamid alone 100 ppm AI) was 0%, the “AVERAGE DEAD IN %” value ([1]; Flonicamid alone 200 ppm AI) was 0% and the “AVERAGE DEAD IN %” value ([1]; Flonicamid alone 400 ppm AI) was 0%. The “AVERAGE DEAD IN %” value ([1]; single compound at 12.5 ppm AI) was 0%, the “AVERAGE DEAD IN %” value ([1]; single compound at 25 ppm AI) was 0% and the “AVERAGE DEAD IN %” value ([1]; single compound at 50 ppm AI) was 0%. For the same compound, the “AVERAGE DEAD IN %” value ([1]; single compound at 100 ppm AI) was 0%, the “AVERAGE DEAD IN %” value ([1]; single compound at 200 ppm AI) was 0% and the “AVERAGE DEAD IN %” value ([1]; single compound at 400 ppm AI) was 0%. For the same compound, the “AVERAGE DEAD IN %” value [1, 3] was 0%, the “AVERAGE DEAD IN %” value [1, 4] was 0% and the “AVERAGE DEAD IN %” value [1, 5] was 15%. The “AVERAGE DEAD IN %” value [1, 6] was 0%, the “AVERAGE DEAD IN %” value [1, 7] was 0% and the “AVERAGE DEAD IN %” value ([1]; single compound, 400 ppm AI, larval mortality, 4 days) was 0%.
For O=[N+]([O-])NC1=NCCN1Cc1ccc(Cl)nc1 [Imidacloprid], the “AVERAGE DEAD IN %” value ([2]; 25 ppm alone) was 0%, the “AVERAGE DEAD IN %” value ([2]; 50 ppm alone) was 0% and the “AVERAGE DEAD IN %” value ([2]; 100 ppm alone) was 25%. For the same compound, the “AVERAGE DEAD IN %” value ([2]; 200 ppm alone) was 0%, the “AVERAGE DEAD IN %” value ([2]; 400 ppm alone) was 13% and the “AVERAGE DEAD IN %” value ([2]; 800 ppm alone) was 25%. The “AVERAGE DEAD IN %” value ([2]; Imidacloprid alone, 25 ppm, Table 123) was 0%, the “AVERAGE DEAD IN %” value ([2]; Imidacloprid alone, 50 ppm, Table 123) was 0% and the “AVERAGE DEAD IN %” value ([2]; Imidacloprid alone, 100 ppm, Table 123) was 25%. The “AVERAGE DEAD IN %” value ([2]; Imidacloprid alone, 200 ppm, Table 123) was 0%, the “AVERAGE DEAD IN %” value ([2]; Imidacloprid alone, 400 ppm, Table 123) was 13% and the “AVERAGE DEAD IN %” value ([2]; Imidacloprid alone, 800 ppm, Table 123) was 25%. The pest or weed control at 6.25 ppm ([1]; Imidacloprid alone 6.25 ppm AI) was 0%, the pest or weed control at 12.5 ppm ([1]; Imidacloprid alone 12.5 ppm AI) was 0% and the pest or weed control at 25 ppm ([1]; Imidacloprid alone 25 ppm AI) was 20%. The pest or weed control at 50 ppm ([1]; Imidacloprid alone 50 ppm AI) was 50%, the pest or weed control at 100 ppm ([1]; Imidacloprid alone 100 ppm AI) was 95% and the pest or weed control at 200 ppm ([1]; Imidacloprid alone 200 ppm AI) was 100%. It also gave a pest or weed control at 6.25 ppm ([1]; single compound at 6.25 ppm AI) of 0%, a pest or weed control at 12.5 ppm ([1]; single compound at 12.5 ppm AI) of 0% and a pest or weed control at 25 ppm ([1]; single compound at 25 ppm AI) of 20%. The pest or weed control at 50 ppm ([1]; single compound at 50 ppm AI) was 50%, the pest or weed control at 100 ppm ([1]; single compound at 100 ppm AI) was 95% and the pest or weed control at 200 ppm ([1]; single compound at 200 ppm AI) was 100%. It also gave a pest or weed control at 6.25 ppm ([1]; single compound, 6.25 ppm AI, larval mortality, 4 days) of 0%, a pest or weed control at 12.5 ppm [1, 3] of 0% and a pest or weed control at 25 ppm [1, 4] of 75%. For the same compound, the pest or weed control at 50 ppm [1, 5] was 85%, the pest or weed control at 100 ppm [1, 6] was 88% and the pest or weed control at 200 ppm [1, 7] was 100%.
In the case of Emamectin, the “AVERAGE DEAD IN %” value ([2]; 0.1 ppm alone) is reported as 70%, the “AVERAGE DEAD IN %” value ([2]; 0.2 ppm alone) is reported as 75% and the “AVERAGE DEAD IN %” value ([2]; 0.4 ppm alone) is reported as 93%. For the same compound, the “AVERAGE DEAD IN %” value ([2]; 0.8 ppm alone) was 95%, the “AVERAGE DEAD IN %” value ([2]; 1.6 ppm alone) was 95% and the “AVERAGE DEAD IN %” value ([2]; 3.2 ppm alone) was 100%. For the same compound, the “AVERAGE DEAD IN %” value ([2]; Emamectin alone, 0.1 ppm, Table 121) was 70%, the “AVERAGE DEAD IN %” value ([2]; Emamectin alone, 0.2 ppm, Table 121) was 75% and the “AVERAGE DEAD IN %” value ([2]; Emamectin alone, 0.4 ppm, Table 121) was 93%. For the same compound, the “AVERAGE DEAD IN %” value ([2]; Emamectin alone, 0.8 ppm, Table 121) was 95%, the “AVERAGE DEAD IN %” value ([2]; Emamectin alone, 1.6 ppm, Table 121) was 95% and the “AVERAGE DEAD IN %” value ([2]; Emamectin alone, 3.2 ppm, Table 121) was 100%.
